Assay results: patent JPH07173127A, “ヒドロキサム酸誘導体およびそれを有効成分とするエラスターゼ阻害剤” (Kuraray Co Ltd, priority 1993, dated 1995)

The compounds below were run against T1, human leukocyte-derived elastase [ヒト白血球由来エラスターゼ] (Homo sapiens, UniProt P08246) (assay: エラスターゼ阻害試験 (elastase inhibition test, Test Example 1; fluorogenic substrate)). Settings: 50% inhibitory concentration of elastase activity; substrate methoxysuccinyl-Ala-Ala-Pro-Val-4-methyl-coumaryl-7-amide; 0.2M Tris-HCl buffer containing 1M NaCl, pH 8.5; 35℃, 5 min incubation; fluorescence 370/460 nm.
T1 construct: ヒト白血球由来エラスターゼはシグマ社; purchased Sigma (USA); host or cells: human leukocytes (natural source, as the printed name says)
T1 sequence (P08246 30-247 limits assumed): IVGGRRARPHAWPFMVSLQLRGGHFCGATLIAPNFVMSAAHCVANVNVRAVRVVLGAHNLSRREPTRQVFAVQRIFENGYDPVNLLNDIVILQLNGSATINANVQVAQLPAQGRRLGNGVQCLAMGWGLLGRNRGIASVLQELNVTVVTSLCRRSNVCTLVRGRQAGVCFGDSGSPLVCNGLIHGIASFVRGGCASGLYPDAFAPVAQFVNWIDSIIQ
Type: biochemical

IC50	SMILES
3000 nM	CCOC(=O)C(CCC(C)C)(CCC(C)C)C(=O)NOCc1ccccc1 [実施例1, 2−イソペンチル−5−メチル−2−エトキシカルボニルヘキサノヒドロキサム酸ベンジルエステル]
1000 nM	CCOC(=O)C(CCC(C)C)(CCC(C)C)C(=O)NO [実施例2, 2−イソペンチル−5−メチル−2−エトキシカルボニルヘキサノヒドロキサム酸]
1000 nM	CC(C)CCC(CCC(C)C)C(=O)NO [実施例4, 2−イソペンチル−5−メチルヘキサノヒドロキサム酸]
